Measurements: publication PMC9234671, “Molecular determinants of αVβ5 localization in flat clathrin lattices – role of αVβ5 in cell adhesion and proliferation” (Journal of Cell Science, 2022)

Assays:
[1] = test system: GEF-H1 (phospho S886) in PA-JEB and PA-JEB/β4 keratinocytes; test: Western blot: GEF-H1 phosphorylation; assay type: cell-based, human; details: after calyculin A, n=3
Method: Proteins were separated by electrophoresis using a Bolt Novex 4–12% gradient Bis-Tris gels (Invitrogen) or 15% SDS-PAGE gels (made in-house), transferred to Immobilon-P transfer membranes (Millipore Corp) and blocked for at least 30 min in 2% BSA in TBST buffer (10 mM Tris-HCl pH 7.5, 150 mM NaCl and 0.3% Tween-20). Primary antibody (diluted 1:1000 in 2% BSA in TBST buffer) incubation took place overnight at 4°C. After washing twice with TBST and twice with TBS, blots were incubated for 1 h hour at room temperature with horseradish peroxidase-conjugated goat anti-mouse-IgG or goat anti-rabbit-IgG (diluted 1:3000 in 2% BSA in TBST buffer). After subsequent washing steps, the bound antibodies were detected by enhanced chemiluminescence using SuperSignal™ West Dura Extended Duration Substrate (ThermoFisher) or Clarity™ Western ECL Substrate (Bio-Rad) as described by the manufacturer. Signal intensities were quantified using ImageJ.
Fig. S4. (A) Representative western blots of phosphorylated myosin light chain (MLC) and GAPDH in PA-JEB/β4 keratinocytes treated with DMSO versus Nocodazole. […]
μm. Quantifications of β5 or β5 mutants clustering in FAs are shown in (C-E). […] Total cells analyzed per condition: 90 (WT, DMSO), 111 (WT, Noco.) (C), 40 (S>E, DMSO), 80 (S>E, Noco.) (D), 65 (S>A, DMSO), 82 (S>A, Noco.) (E). […]

[2] = test system: integrin β5 localization in PA-JEB keratinocytes; test: Immunofluorescence: integrin β5 clustering in FAs/FCLs, PA-JEB; assay type: cell-based, human; details: 5 nM calyculin A versus DMSO, 30 min, 10% FCS DMEM, three independent experiments
Source text: Fig. 3. Serine 759 and 762 are involved in regulating the localization of integrin β5. (A–C) Integrin β5 containing S759/762E or S759/762A mutations (A) were expressed in β5-deficient PA-JEB/β4 keratinocytes and the subcellular distribution of β5 was compared to β5-deficient keratinocytes expressing wild-type (WT) β5. Merged images show integrin β5 (green), vinculin (B) or clathrin (C) (red), actin (blue) and the cell nuclei (cyan). (D,E) Analysis of wild-type versus mutant integrin β5 clustering in FAs or FCLs. (F–I) PA-JEB/β4 keratinocytes were grown in 10% FCS-supplemented DMEM culture medium overnight and then treated with 5 nM calyculin A (Cal.A) or DMSO (vehicle control) for 30 min prior to fixation. Merged images show integrin β5 (green), vinculin (F) or clathrin (H) (red), actin (blue) and the cell nuclei (cyan), quantifications of β5 clustering in FAs or FCLs are shown in G,I. (J,K) Analysis of integrin β5 clustering in FAs or FCLs in PA-JEB keratinocytes after treatment with Cal.A. Representative confocal microscopy images are shown in Fig. S3. Scale bars: 20 μm. Data were obtained from three independent experiments. Total cells analyzed per condition: 109 (WT), 116 (S>E), 103 (S>A) (D), 81 (WT), 77 (S>E), 101 (S>A) (E), 126 and 123 (G), 111 and 101 (I), 106 and 102 (J), 115 and 109 (K). ****P<0.0001 (Mann–Whitney U-test). […]

In the case of `COC[C@@H]([C@H](O)[C@H](O)C(=O)NCC[C@H](C)c1nc(/C=C/C[C@@H]2O[C@]3(C[C@@H](O)[C@@H]2C)O[C@H]([C@H](C[C@H](O)[C@H](C)[C@H](O)[C@H](C)/C=C(C)/C(C)=C/C=C/C(C)=C\C#N)OC)[C@H](OP(=O)(O)O)C3(C)C)co1)N(C)C` [calyculin A], the “phosphorylation of GEF-H1” value [1] is reported as “increase in the phosphorylation of GEF-H1”, the “localization of integrin β5 in FCLs, PA-JEB” value ([2]; colocalization with clathrin) is reported as “increased the localization in FCLs” and the “localization of integrin β5 in FAs, PA-JEB” value ([2]; colocalization with vinculin) is reported as “reduced the localization of integrin β5 in FAs”.
